Format in all cases: biochemical
Test [1] concerns the target PKC theta kinase (Homo sapiens, UniProt Q04759). The test is described as follows: PKC theta coupled-enzyme (NADH consumption) kinase assay. The conditions noted are these: 18 nM PKC theta, 240 μM ATP, 30° C., initial rate at 340 nm. The procedure:
(§1) An assay buffer solution was prepared which consisted of 100 mM HEPES (pH 7.5), 10 mM MgCl2, 25 mM NaCl, 0.1 mM EDTA and 0.01% Brij. […] To 60 μL of this enzyme buffer, in a 384 well plate, was added 2 μL of VRT stock solution in DMSO. […] The enzyme reaction was initiated by the addition of 5 μL stock ATP solution prepared in assay buffer to a final assay concentration of 240 μM. Initial rate data was determined from the rate of change of absorbance at 340 nm (corresponding to stoichiometric consumption of NADH) using a Molecular Devices Spectramax plate reader (Sunnyvale, Calif.) over 15 mins at 30° C. For each Ki determination 12 data points covering the VRT concentration range of 0-20 μM were obtained in duplicate (DMSO stocks were prepared from an initial 10 mM VRT stock with subsequent 1:2 serial dilutions). Ki values were calculated from initial rate data by non-linear regression using the Prism software package (Prism 4.0a, Graphpad Software, San Diego, Calif.).

In test [2] the target is PKC delta kinase (Homo sapiens, UniProt Q05655). As to the kind of experiment: PKC delta coupled-enzyme (NADH consumption) kinase assay. Particulars: 46 nM PKC delta, 150 μM ATP, 30° C., initial rate at 340 nm. On the procedure: as §1, with “To 16” for “To 60”, “added 1” for “added 2”, “of 16” for “of 5”, “of 150” for “of 240”
The target in test [3] is PKC alpha kinase (Homo sapiens, UniProt P17252). The test is described as follows: PKC alpha coupled-enzyme (NADH consumption) kinase assay. Particulars: 4.5 nM PKC alpha, 130 μM ATP, 100 μM CaCl2, 30° C. On the procedure:
An assay buffer solution was prepared which consisted of 100 mM HEPES (pH 7.5), 10 mM MgCl2, 25 mM NaCl, 0.1 mM EDTA, 100 μM CaCl2 and 0.01% Brij. An enzyme buffer containing reagents to final assay concentrations of 0.002% Triton X-100, 100 μg/mL Phosphatidylserine, 20 μg/mL Diacylglycerol, 360 μM NADH, 3 mM phosphoenolpyruvate, 70 μg/mL pyruvate kinase, 24 μg/mL lactate dehydrogenase, 2 mM DTT, 150 μM substrate peptide ([…] SEQ ID NO. 1) and 4.5 nM PKC alpha kinase was prepared in assay buffer. To 16 μL of this enzyme buffer, in a 384 well plate, was added 1 μL of VRT stock solution in DMSO. The mixture was allowed to equilibrate for 10 mins at 30° C. The enzyme reaction was initiated by the addition of 16 μL stock ATP solution prepared in assay buffer to a final assay concentration of 130 μM. Initial rate data was determined from the rate of change of absorbance at 340 nm (corresponding to stoichiometric consumption of NADH) using a Molecular Devices Spectramax plate reader (Sunnyvale, Calif.) over 15 mins at 30° C. For each Ki determination 12 data points covering the VRT concentration range of 0-20 μM were obtained in duplicate (DMSO stocks were prepared from an initial 10 mM VRT stock with subsequent 1:2 serial dilutions). Ki values were calculated from initial rate data by non-linear regression using the Prism software package (Prism 4.0a, Graphpad Software, San Diego, Calif.).

pKi: −log10 of the molar value. Where two headings read alike, the source gives them in different places.

Chain of PKC theta kinase (Q04759 whole entry): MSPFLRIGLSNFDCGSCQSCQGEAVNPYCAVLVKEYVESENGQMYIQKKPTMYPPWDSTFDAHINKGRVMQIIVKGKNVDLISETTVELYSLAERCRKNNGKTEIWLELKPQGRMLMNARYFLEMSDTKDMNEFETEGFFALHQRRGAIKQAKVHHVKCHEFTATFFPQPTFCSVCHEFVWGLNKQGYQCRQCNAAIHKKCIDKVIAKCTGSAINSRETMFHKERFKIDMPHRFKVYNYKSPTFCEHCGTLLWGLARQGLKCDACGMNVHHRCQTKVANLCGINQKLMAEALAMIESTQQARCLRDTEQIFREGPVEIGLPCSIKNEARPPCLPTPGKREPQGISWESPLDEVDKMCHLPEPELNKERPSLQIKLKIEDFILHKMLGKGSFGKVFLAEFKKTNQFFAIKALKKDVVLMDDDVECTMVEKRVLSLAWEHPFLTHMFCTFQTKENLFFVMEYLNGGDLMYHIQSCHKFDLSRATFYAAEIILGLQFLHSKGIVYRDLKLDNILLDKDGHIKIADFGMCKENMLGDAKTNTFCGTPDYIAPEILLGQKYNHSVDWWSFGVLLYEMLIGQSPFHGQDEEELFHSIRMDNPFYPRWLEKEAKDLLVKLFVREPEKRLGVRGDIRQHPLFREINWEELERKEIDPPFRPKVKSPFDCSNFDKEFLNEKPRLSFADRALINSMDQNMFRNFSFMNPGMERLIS
Chain of PKC delta kinase (Q05655 whole entry): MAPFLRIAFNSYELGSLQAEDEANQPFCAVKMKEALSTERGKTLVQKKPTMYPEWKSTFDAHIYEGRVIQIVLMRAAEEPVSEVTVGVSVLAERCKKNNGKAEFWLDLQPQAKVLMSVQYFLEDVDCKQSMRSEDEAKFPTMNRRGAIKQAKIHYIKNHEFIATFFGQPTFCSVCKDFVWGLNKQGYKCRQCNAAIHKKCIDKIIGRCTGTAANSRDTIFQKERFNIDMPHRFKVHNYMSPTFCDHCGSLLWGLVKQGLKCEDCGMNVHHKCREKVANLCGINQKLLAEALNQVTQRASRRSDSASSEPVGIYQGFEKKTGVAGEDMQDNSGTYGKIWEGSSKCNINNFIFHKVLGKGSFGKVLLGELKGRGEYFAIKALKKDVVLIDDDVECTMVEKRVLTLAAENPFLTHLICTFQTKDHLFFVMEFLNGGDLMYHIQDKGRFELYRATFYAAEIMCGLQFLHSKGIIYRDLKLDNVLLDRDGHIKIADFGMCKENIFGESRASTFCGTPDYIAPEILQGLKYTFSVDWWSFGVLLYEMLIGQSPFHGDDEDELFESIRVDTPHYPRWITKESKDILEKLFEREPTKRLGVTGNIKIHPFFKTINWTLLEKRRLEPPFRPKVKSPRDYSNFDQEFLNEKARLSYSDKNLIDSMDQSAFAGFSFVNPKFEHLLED

For the compound `CC(C)C(N)[C@H]1CCN(c2nc(-c3n[nH]c4ncccc34)c(C#N)cc2F)C1` (single isomer, unassigned) [Compound 36], the pKi in test [1] (read-out: Ki PKC theta) is above 6.30; in test [2] it was below 5.90; in test [3] (read-out: Ki PKC alpha), below 5.90.

Consider `CC(C)[C@@](C)(O)[C@@H]1CN(c2nc(-c3n[nH]c4ncccc34)c(F)cc2F)CCN1` [Compound 1, (R)-2-((S)-4-(3,5-difluoro-6-(1H-pyrazolo[3,4-b]pyridin-3-yl)pyridin-2-yl)piperazin-2-yl)-3-methylbutan-2-ol], for which the pKi in test [1] (Ki PKC theta) is above 9.00; in test [2], above 7.30; in test [3] (Ki PKC alpha), above 6.30.

With `CC1(C)CC1(O)C1CN(c2nc(-c3n[nH]c4ncccc34)c(F)cc2F)CCN1` (stereo not shown) [Compound 2], the pKi was above 9.00 in test [1] (read-out: Ki PKC theta), above 8.00 in test [2] and above 6.30 in test [3] (read-out: Ki PKC alpha).

For `CC(C)C(C)(O)C1CN(c2nc(C3N=Nc4ncccc43)c(F)cc2F)CCN1` (stereo not shown) [Compound 3], the pKi in test [1] (Ki PKC theta) is above 9.00; in test [2], above 6.30; in test [3] (Ki PKC alpha), above 5.55.

Consider `CC(O)(C1CC1)C1CN(c2nc(-c3n[nH]c4ncccc34)c(F)cc2F)CCN1` (stereo not shown) [Compound 4], for which the pKi in test [1] (read-out: Ki PKC theta) is above 9.00; in test [2], above 6.30; in test [3] (read-out: Ki PKC alpha) it was below 5.90.

For `CC(O)(C1CC1)C1CN(c2nc(-c3n[nH]c4ncccc34)c(F)cc2F)CCN1` (stereo not shown) [Compound 5], the pKi was above 7.30 in test [2] and above 6.30 in test [3] (read-out: Ki PKC alpha).

For `CCC(C)(O)C1CN(c2nc(-c3n[nH]c4ncccc34)c(F)cc2F)CCN1` (stereo not shown) [Compound 6], the negative logarithm of the Ki (pKi) was above 9.00 in test [1] (read-out: Ki PKC theta), above 7.30 in test [2] and above 5.55 in test [3] (read-out: Ki PKC alpha).

For the compound `CC(C)[C@@H](O)[C@@H]1CN(c2nc(-c3n[nH]c4ncccc34)c(F)cc2F)CCN1` [Compound 7], the negative-log Ki (pKi) in test [1] (read-out: Ki PKC theta) is above 9.00; in test [2] it was above 7.30; in test [3] (read-out: Ki PKC alpha), above 6.30.

As for `CC[C@@H](O)[C@@H]1CN(c2nc(-c3n[nH]c4ncccc34)c(F)cc2F)CCN1` [Compound 8], the pKi is above 9.00 in test [1] (read-out: Ki PKC theta), above 7.30 in test [2] and above 5.55 in test [3] (read-out: Ki PKC alpha).

For the compound `CC(C)[C@@](C)(O)[C@@H]1CN(c2nc(-c3n[nH]c4ncccc34)c(F)cc2Cl)CCN1` [Compound 9, (R)-2-((S)-4-(3-chloro-5-fluoro-6-(1H-pyrazolo[3,4-b]pyridin-3-yl)pyridin-2-yl)piperazin-2-yl)-3-methylbutan-2-ol], the pKi in test [1] (read-out: Ki PKC theta) was above 9.00; in test [2] it was above 7.30; in test [3] (read-out: Ki PKC alpha), above 6.30.

As for `CC(C)[C@@](C)(O)[C@@H]1CN(c2nc(-c3n[nH]c4ncccc34)c(F)cc2C#N)CCN1` [Compound 10], the pKi in test [3] (read-out: Ki PKC alpha) was below 5.90.

As to `CC(C)(F)C(C)(O)C1CN(c2nc(-c3n[nH]c4ncccc34)c(F)cc2F)CCN1` (stereo not shown) [Compound 11], the pKi was above 9.00 in test [1] (read-out: Ki PKC theta), above 8.00 in test [2] and above 5.55 in test [3] (read-out: Ki PKC alpha).

As for `CC(C)(F)C(C)(O)C1CN(c2nc(-c3n[nH]c4ncccc34)c(F)cc2F)CCN1` (stereo not shown) [Compound 12], the pKi in test [2] was above 7.30; in test [3] (read-out: Ki PKC alpha), above 6.30.

Turning to `CC(O)(C1CN(c2nc(-c3n[nH]c4ncccc34)c(F)cc2F)CCN1)C(F)(F)F` (stereo not shown) [Compound 13], the pKi in test [1] (read-out: Ki PKC theta) is above 9.00; in test [2], above 6.30; in test [3] (read-out: Ki PKC alpha), above 5.55.

As for `CC(O)(CC(F)(F)F)C1CN(c2nc(-c3n[nH]c4ncccc34)c(F)cc2F)CCN1` (stereo not shown) [Compound 15], the results for the pKi in test [1] (read-out: Ki PKC theta), in test [2] and in test [3] (read-out: Ki PKC alpha) were above 9.00, above 7.30 and above 6.30, respectively.

Regarding `COCC(C)(O)C1CN(c2nc(-c3n[nH]c4ncccc34)c(F)cc2F)CCN1` (stereo not shown) [Compound 16], the pKi was above 7.30 in test [1] (read-out: Ki PKC theta), above 6.30 in test [2] and below 5.90 in test [3] (read-out: Ki PKC alpha).

With `COCC(C)(O)C1CN(c2nc(-c3n[nH]c4ncccc34)c(F)cc2F)CCN1` (stereo not shown) [Compound 17], the pKi in test [3] (read-out: Ki PKC alpha) was above 5.55.

Turning to `CC(C)[C@@](C)(O)C1CN(c2nc(-c3n[nH]c4ncccc34)c(C#N)cc2F)CCN1` (stereo partly shown) [Compound 35], in test [1] (read-out: Ki PKC theta), the pKi is above 6.30.

One may read the pKi as −log10 of the Ki, conventionally taken in molar units.
